Data set [1] can be described thus: Moisture content and pH of aqueous solutions of bupropion salts. Type of data set: physicochemical.
The conditions of data set [2]: cited from earlier work.
Data set [3] is described as follows: forced degradation stability study of bupropion salts in vials, 40 degrees C./75% RH, HPLC assay and impurities.
Data set [4] in a line: moisture content by KF and pH (aq. 0.5%) of bupropion salts. As to conditions: salt as received. Type of data set: physicochemical. The method, then: The eight salts were first evaluated by HPLC, KF, pH and DSC for purity, water content, aqueous pH and possible polymorphs.
The salts were analyzed by DSC (at 10° C./min from 30° C. up to 400° C.) and the pH (aq. 0.5%), and the moisture content by KF were also measured. The TGA was performed on the HCl, maleate, tosylate and HBr salts.

Setting [5] is: After re crystallization (R&D), tested after 1 day.
The mark [6] stands for this setting: Lower Alcohol Fatty Acid Ester Surfactants (Table 97).
Where [7] appears, read: Mono- and Diglyceride Surfactants (Table 89).
Where [8] appears, read: Sorbitan Fatty Acid Ester Surfactants (Table 96).
Where [9] appears, read: Polyethylene Glycol Alkyl Ethers (Table 92).
Where [10] appears, read: Sterol and Sterol Derivative Surfactants (Table 90).
Where [11] appears, read: Sugar Ester Surfactants (Table 93).

Where two headings read alike, the source gives them in different places. Marks after values point to notes of the source that are not given here. Bounds are passed on as bounds.

With `CC(NC(C)(C)C)C(=O)c1cccc(Cl)c1.O=C(O)CC(O)(CC(=O)O)C(=O)O` (stereo not shown) [Bup-Citrate (I)], in data set [1] (Original (Initial APIs)), the “moisture content KF” value came to 0.23% and the “pH (aq. 0.5%)” value is listed as 3.89. Regarding `Br.CC(NC(C)(C)C)C(=O)c1cccc(Cl)c1` (stereo not shown) [Bup-HBr], in data set [1] (Original (Initial APIs)), the “moisture content KF” value came to 0.00%. Consider `CC(NC(C)(C)C)C(=O)c1cccc(Cl)c1.Cl` (stereo not shown) [Bup-HCl], for which, in data set [1] (Original (Initial APIs)), the “moisture content KF” value is listed as 0.0% and the “pH (aq. 0.5%)” value is 5.90. As to `CC(NC(C)(C)C)C(=O)c1cccc(Cl)c1.O=C(O)/C=C\C(=O)O` (stereo not shown) [Bup-Maleate], in data set [1] (Original (Initial APIs)), the “moisture content KF” value amounted to 0.10% and the “pH (aq. 0.5%)” value is 4.29. On to `CC(NC(C)(C)C)C(=O)c1cccc(Cl)c1.CC(NC(C)(C)C)C(=O)c1cccc(Cl)c1.O=C(O)C(O)C(O)C(=O)O` (stereo not shown) [Bup-Tartrate neutral], for which, in data set [1] (Original (Initial APIs)), the “moisture content KF” value is on record as 0.14% and the “pH (aq. 0.5%)” value worked out at 3.62. Turning to `CC(NC(C)(C)C)C(=O)c1cccc(Cl)c1.Cc1ccc(S(=O)(=O)O)cc1` (stereo not shown) [Bup-Tosylate], the “moisture content KF” value in data set [1] (After re crystallization (R&D), tested after 2 Months) is recorded as 0.18%; in data set [1] (setting [5]), 023%; in data set [1] (Original (Initial APIs)), 1.71* %. Further, the entries for the “pH (aq. 0.5%)” value in data set [1] (setting [5]) and in data set [1] (Original (Initial APIs)) were 5.88 and 5.56, respectively.

Consider `CCCCC/C=C\C/C=C\CCCCCCCC(=O)OCC` [Ethyl linoleate], for which, in data set [2] (setting [6]), the HLB is below 10.

For `CCCCCCCC/C=C\CCCCCCCC(=O)OCC` [Ethyl oleate], in data set [2] (setting [6]), the HLB was below 10. With `CCCCC/C=C\C/C=C\CCCCCCCC(=O)OCC(O)CO` (stereo not shown) [Glycerol monolinoleate], in data set [2] (setting [7]), the HLB is reported as 3-4. As for `CCCCCCCCCCCCCCCC(=O)OCC(O)CO` (stereo not shown) [Glycerol monopalmitate], the HLB in data set [2] (setting [7]) is 4. As for `CCCCCCCCCCCCCCCCCC(=O)OCC(O)CO` (stereo not shown) [Glycerol monostearate], the HLB in data set [2] (setting [7]) was 5-9.

For `CC(=O)OCC(O)CO` (stereo not shown) [Glyceryl acetate], the HLB in data set [2] (setting [7]) is on record as below 10. `CCCCCCCC(=O)OCC(O)CO` (stereo not shown) [Glyceryl caprylate]: the HLB in data set [2] (setting [7]) was 5-6. As for `CCCCCCCCCCCC(=O)OCC(O)CO` (stereo not shown) [Glyceryl laurate], the HLB in data set [2] (setting [7]) is reported as 4. As for `CCCCCCCCCCCC(=O)OCC(O)CO` (stereo not shown) [Glyceryl monolaurate], the HLB in data set [2] (setting [7]) is reported as 6.8. For the compound `CCCCCCCCCCCCCC(=O)OCC(O)CO` (stereo not shown) [Glyceryl monomyristate (C14)], in data set [2] (setting [7]), the HLB is recorded as 3-4. Regarding `CCCCCCCC/C=C\CCCCCCCC(=O)OCC(O)CO` (stereo not shown) [Glyceryl monooleate (C18:1)], the HLB in data set [2] (setting [7]) is on record as 3-4. Regarding `CCCCCC[C@@H](O)C/C=C\CCCCCCCC(=O)OCC(O)CO` (stereo partly shown) [Glyceryl ricinoleate], in data set [2] (setting [7]), the HLB is reported as 6. `CCCCC/C=C\C/C=C\CCCCCCCC(=O)OC(C)C` [Isopropyl linoleate]: the HLB in data set [2] (setting [6]) is listed as below 10.

As to `CCCCCCCCCCCCCC(=O)OC(C)C` [Isopropyl myristate], in data set [2] (setting [6]), the HLB is on record as below 10. Take `CCCCCCCCCC(=O)OCC(O)CO` (stereo not shown) [Monocaprin]: the HLB in data set [2] (setting [7]) is on record as below 10. For the compound `CCCCCC(=O)OCC(O)CO` (stereo not shown) [Monocaproin (C6)], the HLB in data set [2] (setting [7]) was below 10.

On to `CCCCCCCC(=O)OCC(O)CO` (stereo not shown) [Monocaprylin], for which, in data set [2] (setting [7]), the HLB is recorded as below 10. With `CCCCCCCC/C=C/CCCCCCCC(=O)OCC(O)CO` (stereo not shown) [Monoelaidin (C18:1)], the HLB in data set [2] (setting [7]) was below 10. For the compound `CCCCCCCCCCCC(=O)OCC(O)CO` (stereo not shown) [Monolaurin], in data set [2] (setting [7]), the HLB is below 10. For `CCCCCCCCCCCCOS(=O)(=O)[O-].[Na+]` [Sodium lauryl sulfate (dodecyl)], in data set [2] (Ionic Surfactants (Table 98)), the HLB was 40.

As to `CCCCCCCC/C=C\CCCCCCCC(=O)[O-].[Na+]` [Sodium oleate], the HLB in data set [2] (Ionic Surfactants (Table 98)) is listed as 18. Regarding `CCCCCCCCCCCCCCCC(=O)OC[C@@H](O)[C@H]1OC[C@H](O)[C@H]1O` [Sorbitan monopalmitate], the HLB in data set [2] (setting [8]) is recorded as 6.7. With Bupropion Fumarate, in data set [3], the “In IPA/EtOH, 3-CBZ: order of impurity content” value is given as “maleate > HBr > HCl > Fumarate”; the “In IPA/EtOH, 852U77: order of impurity content” value is reported as “fumarate > HBr ≈HCl ≈maleate ≈tosylate”; the “In IPA/EtOH, Total imp.: order of impurity content” value is listed as “fumarate > maleate > HBr > HCl > tosylate”; the “In water, 3-CBZ: order of impurity content” value is “HCl > HBr≈maleate≈fumarate”. For the same compound, in data set [3], the “In water, 852U77: order of impurity content” value is “fumarate > HBr > maleate > HCl” and the “In water, Total imp.: order of impurity content” value was “fumarate > HBr > HCl > tosylate > maleate”. Besides, in data set [4], the “moisture content KF” value was 0.09% and the “pH of the aqueous solution of 0.5%” value amounted to 3.84. Turning to Caprylic/capric glycerides, in data set [2] (setting [7]), the HLB is listed as below 10. On to Distearin, for which, in data set [2] (setting [7]), the HLB was below 10.

Turning to Glycerol monooleate/linoleate, the HLB in data set [2] (setting [7]) is reported as 3-4. As to Glyceryl dioleate, the HLB in data set [2] (setting [7]) is reported as 3-4. On to Glyceryl mono-, dioleate, for which, in data set [2] (setting [7]), the HLB is listed as below 10. Consider Glyceryl palmitic/stearic, for which the HLB in data set [2] (setting [7]) is on record as below 10. In the case of Mono-and diacetylated monoglycerides, in data set [2] (setting [7]), the HLB is 3.8-4. Take PEG-3 oleyl ether: the HLB in data set [2] (setting [9]) is below 10.

On to PEG-4 lauryl ether, for which the HLB in data set [2] (setting [9]) is listed as 9.7. With PEG-5 oleyl ether, the HLB in data set [2] (setting [9]) is given as below 10. On to PEG-5 soya sterol, for which, in data set [2] (setting [10]), the HLB is reported as below 10. For the compound PEG-10 soya sterol, in data set [2] (setting [10]), the HLB is below 10. Regarding PEG-20 soya sterol, in data set [2] (setting [10]), the HLB was below 10. As to PEG-24 cholesterol ether, the HLB in data set [2] (setting [10]) is recorded as above 10. Regarding PEG-25 phyto sterol, the HLB in data set [2] (setting [10]) is above 10.

Consider PEG-30 cholestanol, for which the HLB in data set [2] (setting [10]) is reported as above 10. With PEG-30 soya sterol, the HLB in data set [2] (setting [10]) is given as above 10. Turning to Phytosterol, in data set [2] (setting [10]), the HLB was below 10. On to Sorbitan monoisostearate, for which the HLB in data set [2] (setting [8]) is on record as 4.7. Consider Sorbitan monooleate, for which, in data set [2] (setting [8]), the HLB is 4.3. As for Sorbitan monostearate, the HLB in data set [2] (setting [8]) was 4.7. Regarding Sorbitan sesquistearate, the HLB in data set [2] (setting [8]) was 4.2. Take Sorbitan trioleate: the HLB in data set [2] (setting [8]) was 4.3.

On to Sucrose dipalmitate, for which, in data set [2] (setting [11]), the HLB is listed as 7.4. As for Sucrose distearate, in data set [2] (setting [11]), the HLB was 3. Take Sucrose monopalmitate: the HLB in data set [2] (setting [11]) is given as above 10.

Values taken from US7645802B2 (Biovail Laboratories International SRL., priority 2005, dated 2010).
